Measured values published in paper PMC7170716 (Nature, 2020).

Key:
M. smegmatis SID = molecular target: T1, M. smegmatis SID (Mycolicibacterium smegmatis, UniProt A0R6H8); experiment: SPR, biotinylated SID on chip, equilibrium fit; format: binding; settings: HPLC-purified Fe-cMBT (MW 799 Da), 0-100 μM; single experiment
T1 sequence (A0R6H8 1-250 limits assumed): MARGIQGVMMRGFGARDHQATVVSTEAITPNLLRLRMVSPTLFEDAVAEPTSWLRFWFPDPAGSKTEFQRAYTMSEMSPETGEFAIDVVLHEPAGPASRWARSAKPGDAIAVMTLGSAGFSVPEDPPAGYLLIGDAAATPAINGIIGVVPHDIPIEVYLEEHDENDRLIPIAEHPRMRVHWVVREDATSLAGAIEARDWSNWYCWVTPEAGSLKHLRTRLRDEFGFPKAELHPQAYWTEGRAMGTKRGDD

[1] = molecular target: T2, M. thermoresistibile IrtAB (full-length) (Mycolicibacterium thermoresistibile, UniProt G7CBF5+G7CBF6); experiment: ATPase stimulation in nanodiscs, malachite green; format: biochemical; settings: 2.5 mM ATP, 10 mM MgSO4, 37 °C, acyl chain length not defined
T2 sequence (G7CBF5 1-908): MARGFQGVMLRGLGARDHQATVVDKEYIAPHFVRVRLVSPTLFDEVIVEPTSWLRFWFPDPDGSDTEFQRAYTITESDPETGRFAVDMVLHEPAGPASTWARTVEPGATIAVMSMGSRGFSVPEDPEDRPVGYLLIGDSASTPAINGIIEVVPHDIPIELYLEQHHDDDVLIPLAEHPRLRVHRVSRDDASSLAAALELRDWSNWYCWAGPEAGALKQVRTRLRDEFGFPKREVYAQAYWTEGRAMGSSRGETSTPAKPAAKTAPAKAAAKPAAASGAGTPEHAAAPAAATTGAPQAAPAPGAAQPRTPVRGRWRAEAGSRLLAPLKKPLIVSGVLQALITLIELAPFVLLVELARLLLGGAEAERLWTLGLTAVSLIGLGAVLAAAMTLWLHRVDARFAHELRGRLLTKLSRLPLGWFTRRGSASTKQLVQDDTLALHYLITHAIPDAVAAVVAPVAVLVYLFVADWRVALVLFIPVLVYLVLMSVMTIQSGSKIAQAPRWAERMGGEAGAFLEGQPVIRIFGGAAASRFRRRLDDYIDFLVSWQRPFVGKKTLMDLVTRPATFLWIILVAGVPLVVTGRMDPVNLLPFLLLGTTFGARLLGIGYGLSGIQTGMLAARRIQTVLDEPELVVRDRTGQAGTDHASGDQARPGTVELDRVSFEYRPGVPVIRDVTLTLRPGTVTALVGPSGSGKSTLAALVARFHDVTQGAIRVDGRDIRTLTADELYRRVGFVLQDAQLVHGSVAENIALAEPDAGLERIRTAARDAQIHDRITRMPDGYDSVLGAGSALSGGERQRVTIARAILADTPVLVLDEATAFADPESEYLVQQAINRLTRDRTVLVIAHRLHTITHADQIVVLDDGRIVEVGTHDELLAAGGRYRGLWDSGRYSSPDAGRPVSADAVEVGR
T2 sequence (G7CBF6 1-579): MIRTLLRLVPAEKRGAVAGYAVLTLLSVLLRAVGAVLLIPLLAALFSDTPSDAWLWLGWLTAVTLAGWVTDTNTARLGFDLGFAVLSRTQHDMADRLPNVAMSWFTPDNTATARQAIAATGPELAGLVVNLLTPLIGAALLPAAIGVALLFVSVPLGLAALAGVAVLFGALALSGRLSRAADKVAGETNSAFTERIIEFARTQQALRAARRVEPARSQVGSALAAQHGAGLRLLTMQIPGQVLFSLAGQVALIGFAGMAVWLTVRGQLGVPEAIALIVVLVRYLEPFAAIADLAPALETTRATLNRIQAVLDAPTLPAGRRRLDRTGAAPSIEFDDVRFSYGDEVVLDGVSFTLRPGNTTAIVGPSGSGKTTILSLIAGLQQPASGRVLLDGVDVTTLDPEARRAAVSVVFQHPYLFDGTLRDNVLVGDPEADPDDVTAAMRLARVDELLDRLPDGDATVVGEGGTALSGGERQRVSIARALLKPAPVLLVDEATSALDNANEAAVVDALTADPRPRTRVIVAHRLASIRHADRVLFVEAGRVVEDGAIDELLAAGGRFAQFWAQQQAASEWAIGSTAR

Substance | Kd (M. smegmatis SID) | fold ATPase stimulation ([1]; Fe-cMBT 0.5-40 μM) | fold ATPase stimulation ([1]; Fe-MBT 0.5-40 μM)
Fe-cMBT | > 200 µM | > 10 fold | 
Fe-MBT |  |  | > 38 fold
